The assay deals with P388. The experiment in a line: Actual inhibitory activity in P388 leukemia cells by CoMFA analysis, expressed as log 1/IC50. It is filed as functional, cell-based. The conditions noted are these: Mus musculus, P388, read-out: Log 1/IC50 (converted).
`CC(=O)O[C@@H]1C2=C(C)C(=O)C[C@@](O)([C@@H](OC(=O)c3ccccc3)[C@@H]3[C@]4(OC(C)=O)CO[C@@H]4C[C@H](O)[C@@]3(C)[C@H]1O)C2(C)C`: the IC50 was 47.9 nM.
For `CC(=O)O[C@@]12CO[C@@H]1C[C@H](O)[C@@]1(C)C(=O)[C@H](O)C3=C(C)[C@@H](OC(=O)[C@H](O)[C@@H](NC(=O)c4ccccc4)c4ccccc4)C[C@@](O)([C@@H](OC(=O)c4ccccc4)[C@H]21)C3(C)C` the value was 42.7 nM; for `CC(=O)O[C@H]1C[C@@]2(O)[C@@H](OC(=O)c3ccccc3)[C@@H]3[C@]4(OC(C)=O)CO[C@@H]4C[C@H](O)[C@@]3(C)[C@@H](O)[C@H](O)C(=C1C)C2(C)C`, 28.9 nM.
The figure for `C=C1[C@H]2C[C@@H]3C[C@H](O)C(C)=C([C@@H](OC(C)=O)[C@H](OC(C)=O)[C@]2(C)[C@@H](OC(C)=O)C[C@@H]1O)C3(C)C` is 63.2 nM.
In the case of `C=C1[C@@H](OC(=O)/C=C/c2ccccc2)C[C@H](OC(C)=O)[C@@]2(C)[C@@H](OC(C)=O)[C@H](OC(C)=O)C3=C(C)C(=O)C[C@@H]([C@@H](OC(C)=O)[C@H]12)C3(C)C`, the IC50 is 10 nM.
The figure for `C=C1[C@@H](OC(C)=O)CC[C@@]2(C)[C@@H](OC(C)=O)[C@H](OC(C)=O)C3=C(C)[C@@H](OC(C)=O)C[C@@H]([C@@H](OC(C)=O)[C@H]12)C3(C)C` is 16.6 nM; for `CCCCCCC(=O)N[C@@H](c1ccccc1)[C@@H](O)C(=O)O[C@H]1C[C@@]2(O)[C@@H](OC(=O)c3ccccc3)[C@@H]3[C@]4(OC(C)=O)CO[C@@H]4C[C@H](O)[C@@]3(C)C(=O)[C@H](OC(C)=O)C(=C1C)C2(C)C` it is 18.2 nM; for `CC(=O)O[C@@]12CO[C@@H]1C[C@H](O)[C@@]1(C)C(=O)[C@H](O)C3=C(C)[C@@H](OC(=O)[C@H](O)[C@@H](NC(=O)C4CCC4)c4ccccc4)C[C@@](O)([C@@H](OC(=O)c4ccccc4)[C@H]21)C3(C)C` it is 66.1 nM.
For `C=C1[C@@H](OC(=O)/C=C/c2ccccc2)CC[C@@]2(C)[C@@H](OC(C)=O)[C@H](OC(C)=O)C3=C(C)C(=O)C[C@@H]([C@@H](OC(C)=O)[C@H]12)C3(C)C`, the IC50 is 10 nM.
For `C=C1[C@@H](O)C[C@H](OC(C)=O)[C@@]2(C)[C@@H](OC(C)=O)[C@H](OC(C)=O)C3=C(C)C(=O)C[C@@H]([C@@H](OC(C)=O)[C@H]12)C3(C)C` the value was 66.1 nM; for `CC(=O)O[C@H]1C[C@H]2[C@@H](OC(C)=O)CC3C[C@](C)(C(=O)[C@H](O)C(=C1C)C2(C)C)[C@@H](O)C[C@@H]3OC(=O)/C=C/c1ccccc1`, 47.9 nM.
With `CC(=O)O[C@H]1C[C@@]2(O)[C@@H](OC(C)=O)[C@@H]3[C@@]4(CO4)[C@@H](OC(C)=O)C[C@H](OC(C)=O)[C@@]3(C)[C@@H](OC(C)=O)[C@H](OC(C)=O)C(=C1C)C2(C)C`, the IC50 is 10 nM.
For `CC(=O)O[C@H]1[C@@H]2[C@H](CO)[C@@H](OC(C)=O)C[C@H](OC(C)=O)[C@@]2(C)[C@@H](OC(C)=O)[C@H](OC(C)=O)C2=C(C)[C@@H](OC(C)=O)C[C@@H]1C2(C)C` the value was 14.1 nM.
`C=C1[C@H]2C[C@@H]3CC(=O)C(C)=C([C@@H](OC(C)=O)[C@H](OC(C)=O)[C@]2(C)[C@@H](OC(C)=O)C[C@@H]1O)C3(C)C`: the IC50 is 12.3 nM.
The figure for `CCCCCC(=O)N[C@@H](c1ccccc1)[C@@H](O)C(=O)O[C@H]1C[C@@]2(O)[C@@H](OC(=O)c3ccccc3)[C@@H]3[C@]4(OC(C)=O)CO[C@@H]4C[C@H](O)[C@@]3(C)C(=O)[C@@H](O)C(=C1C)C2(C)C` is 89.2 nM; for `CC(=O)O[C@H]1C[C@@]2(O)[C@@H](OC(=O)c3ccccc3)[C@@H]3[C@]4(OC(C)=O)CO[C@@H]4C[C@H](O)[C@@]3(C)[C@@H](O)[C@H](OC(C)=O)C(=C1C)C2(C)C` it is 52.5 nM; for `C=C1[C@H]2C[C@@H]3C[C@H](OC(C)=O)C(C)=C([C@@H](OC(C)=O)[C@H](OC(C)=O)[C@]2(C)[C@@H](OC(C)=O)C[C@@H]1O)C3(C)C` it is 43.7 nM.
The figure for `C=C1[C@H]2C[C@]3(O)C[C@H](O)C(C)=C([C@@H](OC(C)=O)[C@H](OC(C)=O)[C@]2(C)[C@@H](OC(=O)c2ccccc2)C[C@@H]1O)C3(C)C` is 25.1 nM.
For `CC(=O)O[C@@]12CO[C@@H]1C[C@H](O)[C@]1(C)[C@@H]2[C@H](OC(=O)c2ccccc2)[C@]2(O)CC(=O)C(C)=C([C@@H](O)[C@@H]1O)C2(C)C` the value was 100 nM; for `CC(=O)OC[C@H]1[C@H]2[C@H](O)[C@@H]3C[C@H](OC(C)=O)C(C)=C([C@@H](OC(C)=O)[C@H](OC(C)=O)[C@]2(C)[C@@H](OC(C)=O)C[C@@H]1OC(C)=O)C3(C)C`, 12.3 nM.
With `CCCCCC(=O)N[C@@H](c1ccccc1)[C@@H](O)C(=O)O[C@H]1C[C@@]2(O)[C@@H](OC(=O)c3ccccc3)[C@@H]3[C@]4(OC(C)=O)CO[C@@H]4C[C@H](O)[C@@]3(C)C(=O)[C@H](O)C(=C1C)C2(C)C` [10-DEACETYLTAXAYUNNANINE A], the IC50 was 40.8 nM.
The figure for `CC(=O)O[C@H]1C(=O)[C@@]2(C)[C@H]([C@H](OC(=O)c3ccccc3)[C@]3(O)C[C@H](O)C(C)=C1C3(C)C)[C@]1(OC(C)=O)CO[C@@H]1C[C@@H]2O` [BACCATIN III] is 63.2 nM; for `C=C1[C@@H](O)C[C@H](OC(C)=O)[C@@]2(C)[C@@H](OC(C)=O)[C@H](OC(C)=O)C3=C(C)[C@@H](OC(C)=O)C[C@@H]([C@@H](OC(C)=O)[C@H]12)C3(C)C` [DECINNAMOYLTAXININE J] it is 12.6 nM.
With `CC(=O)O[C@H]1C(=O)[C@@]2(C)[C@H]([C@H](OC(=O)c3ccccc3)[C@]3(O)C[C@H](OC(=O)[C@H](O)[C@@H](NC(=O)c4ccccc4)c4ccccc4)C(C)=C1C3(C)C)[C@]1(OC(C)=O)CO[C@@H]1C[C@@H]2O` [PACLITAXEL], the IC50 was 21.9 nM.
Consider `C=C1[C@@H](OC(=O)/C=C/c2ccccc2)C[C@H](OC(C)=O)[C@@]2(C)[C@@H](OC(C)=O)[C@H](OC(C)=O)[C@]3(O)[C@@]4(C)CO[C@]3(C)C(=O)C[C@H]4[C@@H](OC(C)=O)[C@H]12` [TAXAGIFINE], for which the IC50 was 10 nM.
For `C=C1[C@@H](O)C[C@H](OC(C)=O)[C@@]2(COC(=O)c3ccccc3)[C@@H](OC(C)=O)[C@H](OC(C)=O)[C@]3(O)[C@@]4(C)CO[C@]3(C)C(=O)C[C@H]4[C@@H](OC(C)=O)[C@H]12` [TAXININ M] the value was 26.9 nM; for `CCCCCC(=O)N[C@@H](c1ccccc1)[C@@H](O)C(=O)O[C@H]1C[C@@]2(O)[C@@H](OC(=O)c3ccccc3)[C@@H]3[C@]4(OC(C)=O)CO[C@@H]4C[C@H](O)[C@@]3(C)C(=O)[C@H](OC(C)=O)C(=C1C)C2(C)C` [TAXOL C], 81.4 nM.

These data come from ChEMBL document CHEMBL1130530, “3D QSAR analysis of taxoids from Taxus cuspidata var. nana by comparative molecular field approach” (Bioorg Med Chem Lett, 1997).
